Data from US8664238B2, “Indenoisoquinolinone derivatives, manufacturing method and medical use thereof” (China Pharmaceutical University, priority 2009, dated 2014).
pIC50: −log10 of the molar value.

tested on: H460 human lung cancer cells; test: Proliferation experiment of H460 human lung cancer cells; type: cell-based; settings: not given
Method: Meanwhile, the proliferation experiment of H460 human lung cancer cells was also conducted.

Compound | pIC50
CCN(CC)CCCOc1ccc(-n2c3c(c4ccccc4c2=O)C(=O)c2ccccc2-3)cc1 [If, 6-(4-(3-diethylaminopropoxy)phenyl)-5H-indeno[1,2-c]isoquinoline-5,11(6H)-diketone] | 6.20

tested on: Human breast cancer cells MCF-7; test: Proliferation of MCF-7 breast cancer cells (MTT detection method); type: cell-based; settings: MCF-7 cells, 48 h incubation with drug, read-out: IC50, inhibition on the proliferation of MCF-7 breast cancer cells
Method: The method described in Journal of Medicinal Chemistry. 1997. 40. 1407-1416 has been used and slightly modified. Human breast cancer cells MCF-7, purchased from Nanjing Keygen Biotechnology Inc. MCF-7 cells were incubated in RPMI1640 medium (containing 10% calf serum, 100 U/ml of penicillin and 100 μg/ml of streptomycin) in a 37° C. incubator with 5% CO2. The medium was replaced once about two days and cells were subcultured once every 3-4 days. In the subculturing, the old medium was discarded and the culture was washed twice with D-hanks (for washing off the phenol red in the medium to eliminate the influence of phenol red on the digestion effect of trypsin). Then, a small amount of 0.25% trypsin (25 mg trypsin, 100 ml D-hanks) was added and the contents were paved in the bottle bottom smoothly. […] Trypsin was discarded and the cells were washed with D-hanks, then fresh medium was added and mixed by blowing. The cultures were put into new culture flasks and cultured continuously. After cell count, a small volume of cell suspension was taken and mixed with 0.4% trypan blue in the same volume by blowing with a straw. A little mixture (15 μl-20 μl) was taken and dropped into the interspace between the counting plate and the coverslip without bubbles. […] Dead cells can be stained by trypan blue, while living cells cannot. The counting plate was moved so as to see the counting squares, then unstained cells in four diagonal grids were counted. The cells counted include those on the right line and the top line but not those on the bottom line and the left line. The number of cells/ml=the number of cells in 25% grid×10^4. […] The control group was that in which the anticancer drug was replaced with the same volume of medium and the blank group is 200 μl medium. After incubating for 48 h, 5 mg/ml MTT was added in 20 μl per well and the cultures were further incubated for 4 h. Then, the liquid was suck out carefully and 150 μl of DMSO was added per well. OD values of all wells were measured in 570 nm and the inhibition rate on the cell proliferation and values of IC50 were calculated.

Compound | pIC50
O=C1c2ccccc2-c2c1c1ccccc1c(=O)n2-c1ccc(OCCCN2CCCCC2)cc1 [Ib, 6-(4-(3-piperidinylpropoxy)phenyl)-5H-indeno[1,2-c]isoquinoline-5,11(6H)-diketone] | 4.96
CN(C)CCOc1ccc(-n2c3c(c4ccccc4c2=O)C(=O)c2ccccc2-3)cc1 [Ic, 6-(4-(2-dimethylaminoethoxy)phenyl)-5H-indeno[1,2-c]isoquinoline-5,11(6H)-diketone] | 5.67
CCN(CC)CCOc1ccc(-n2c3c(c4ccccc4c2=O)C(=O)c2ccccc2-3)cc1 [Ie, 6-(4-(2-diethylaminoethoxy)phenyl)-5H-indeno[1,2-c]isoquinoline-5,11(6H)-diketone] | 5.11
CCN(CC)CCCOc1ccc(-n2c3c(c4ccccc4c2=O)C(=O)c2ccccc2-3)cc1 [If, 6-(4-(3-diethylaminopropoxy)phenyl)-5H-indeno[1,2-c]isoquinoline-5,11(6H)-diketone] | 5.07
CN1CCN(CCOc2ccc(-n3c4c(c5ccccc5c3=O)C(=O)c3ccccc3-4)cc2)CC1 [Ig, 6-(4-(2-(4-methylpiperazinyl)ethoxy)phenyl)-5H-indeno[1,2-c]isoquinoline-5,11(6H)-diketone] | 5.24
O=C1c2ccccc2-c2c1c1ccccc1c(=O)n2-c1ccc(OCCCN2CCCC2)cc1 [Ij, 6-(4-(3-pyrrolidinylpropoxy)phenyl)-5H-indeno[1,2-c]isoquinoline-5,11(6H)-diketone] | 4.61
CC(C)N(CCOc1ccc(-n2c3c(c4ccccc4c2=O)C(=O)c2ccccc2-3)cc1)C(C)C [Ik, 6-(4-(2-diisopropylaminoethoxy)phenyl)-5H-indeno[1,2-c]isoquinoline-5,11(6H)-diketone] | 4.10

Results, then the molecule that gave them:

pIC50 | Compound
5.02 | O=C1c2ccccc2-c2c1c1ccccc1c(=O)n2-c1ccc(OCCN2CCCCC2)cc1 [Ia, 6-(4-(2-piperidinylethoxy)phenyl)-5H-indeno[1,2-c]isoquinoline-5,11(6H)-diketone]
4.55 | CN(C)CCCOc1ccc(-n2c3c(c4ccccc4c2=O)C(=O)c2ccccc2-3)cc1 [Id, 6-(4-(3-dimethylaminopropoxy)phenyl)-5H-indeno[1,2-c]isoquinoline-5,11(6H)-diketone]
5.23 | CN1CCN(CCCOc2ccc(-n3c4c(c5ccccc5c3=O)C(=O)c3ccccc3-4)cc2)CC1 [Ih, 6-(4-(3-(4-methylpiperazinyl)propoxy)phenyl)-5H-indeno[1,2-c]isoquinoline-5,11(6H)-diketone]
4.95 | O=C1c2ccccc2-c2c1c1ccccc1c(=O)n2-c1ccc(OCCN2CCCC2)cc1 [Ii, 6-(4-(2-pyrrolidinylethoxy)phenyl)-5H-indeno[1,2-c]isoquinoline-5,11(6H)-diketone]
